Assays:
[1] = system: MDA-MB-435 breast adenocarcinoma xenograft; assay: In vivo antitumor activity, established mammary fat pad xenograft; conditions: low doses as single agents, 3 weeks i.p.
[2] = Toxicity (body weight, deaths) in tumor-bearing mice; conditions: 3 weeks
Experimental: Drug Preparation and Treatment: Suspensions of Compound II were prepared by combining the drug and Pluronic F68 block copolymer at 1:9 or 1:18 ratios of drug to polymer, to prepare suspensions in the concentration range 0-10 mg/ml and 20 mg/ml respectively. […] The final ratio of liquid components (EtOH, Cremophor, and saline) were 5:5:90, respectively. The experiment consisted of 16 groups which contained a vehicle group, 3 groups given Paclitaxel at 7.5, 15 and 30 mg/kg as a single agent, 3 groups given Compound II at 12.5, 25 and 50 mg/kg as a single agent and […] combination groups of all doses of Paclitaxel and Compound II.
All mice were observed and weighed as groups, 7 times per week for three weeks. The average weight of individual mice was calculated by dividing the group weight by the number of animals per group. Percent body weight change was calculated using the formula:
(Current Average Weight−Initial Average Weight/Initial Average Weight) ×100.

Structure (SMILES)	antitumor efficacy [1]	Deaths/Total ([2]; Paclitaxel 7.5 mg/kg i.p. q.d. 5x/week)	Deaths/Total ([2]; Paclitaxel 15 mg/kg i.p. q.d. 5x/week)	Deaths/Total ([2]; Paclitaxel 30 mg/kg i.p. q.d. 3x/week)
Cn1cc(C2=C(c3cn(C)c4cc([N+](=O)[O-])ccc34)C(=O)NC2=O)c2ccccc21 [Compound II]	only minimally effective			
CC(=O)O[C@H]1C(=O)[C@@]2(C)[C@H]([C@H](OC(=O)c3ccccc3)[C@]3(O)C[C@H](OC(=O)[C@H](O)[C@@H](NC(=O)c4ccccc4)c4ccccc4)C(C)=C1C3(C)C)[C@]1(OC(C)=O)CO[C@@H]1C[C@@H]2O [Paclitaxel, paclitaxel]	only minimally effective	2/10	0/10	0/10

Reference: US6548531B2, “Method for cancer therapy” (priority 2001, dated 2003)
